Measurements from patent US4055640A, “Compositions and methods for controlling the growth of bacteria, fungi and algae using certain derivatives of N-(2,2-dichlorovinyl)salicylamides” (Nippon Kayaku Co., Ltd., priority 1975, dated 1977).

Experiments:
[1] = test system: seedling blight of rice plant (pathogen Fusarium sp. and Rhizoctonia sp.); assay: Exterminating test on seedling blight of rice plant (Experimental Example 1); assay type: in vivo; conditions: soil, 408 h, 0.25g/box a.i., 5% dust mixed with soil; read-out: Percentage of healthy seedlings
Experimental: Exterminating test on seedling blight of rice plant Nursery boxes (60 × 30 × 3 cm) were filled with soil which were contaminated with pathogen (Fusarium sp. and Rhizoctonia sp.) The dust in which the present compound was contained in a ratio of 5% by weight was added in the box in a ratio of 5 grams per box and mixed well with soil. Thereafter, seeds of rice plant (variety: Nihonbare) were sowed in drills at a rate of 0.3 liter per box and grown up in a lighting chamber at 17° C. After 7 days from the sowing, the boxes were carried out in the field. Furthermore, 10 days thereafter the observations were made. Four percent (4%) dust of 3-hydroxy-5-methyl isoxazol (hereinafter referred to as hydroxyisoxazol) on the market was used as a control and tested by the same method. The test results are shown in Table 2 with a "percentage of healthy seedlings". The percentage of healthy seedlings was calculated as follows: […]

[2] = test system: Aspergillus niger, Penicillium citrinum, Cladosporium harbarum and chaetomium globosum; assay: Degree of growth inhibition of fungi on treated beach plates (Example 25); assay type: cell-based; set-up: scale not given here; conditions: numerical rating, 2 weeks
Experimental: The emulsifiable concentrates which were prepared by Example 20 were diluted with water 400 times and 800 times to form emulsions.
The square plates of beach of which a side was 5 cm long and thickness was 5 mm were dipped into the emulsion for 2 minutes and dried for 24 hours at room temperature.
The square plates were placed on the surface of agar plates. The suspensions which contained spores of Aspergillus niger, Penicillium citrinum, Cladosporium harbarum and chaetomium globosum were respectively sprayed on the agar plates and the square plates.
The test fungi were cultivated in the incubator at the humidity of 95% and the temperature of 28° C for 2 weeks. The degree of growth inhibition is defined in terms of the following numerical ratings.

[3] = test system: Rhizoctonia solani (damping-off of cucumber); assay: Exterminating test on damping-off of cucumber (Experimental Example 3); assay type: in vivo; conditions: Rhizoctonia solani, soil, 240 h, 1,000 ppm, soil drench 50 ml per pot, 10 days; read-out: Percentage of healthy seedlings
Experimental: Exterminating test on damping-off of cucumber
The pots (diameter, 12 cm) were filled with field soil and then soil infected by adding Rhizoctonia solani in an amount of 5 grams per pot uniformly into the pots. Thereafter, 10 seeds of cucumber (variety: Azumamidori) were sown in each pot.
Eighty percent (80%) wettable powder of the present invention was diluted with water to obtain a suspension and each pot was drenched with the suspension in an amount of 50 milliliters. Then, the pots were transferred to the greenhouse. Fifty percent (50%) wettable powder of pentachloronitro benzene (hereinafter referred to as PCNB) on the market was used as a control and tested by the same method. After 10 days of the inoculation, degrees attacked by the pathogen were observed and a "Percentage of healthy seedlings" was calculated. The "Percentage of healthy seedlings" was calculated as follows: [formula]

[4] = test system: bacteria gathered from circular water system; assay: Degree of propagation on slime test boards (Example 27); assay type: cell-based; conditions: shaking culture for 2 days
Experimental: (§1) Zero point zero two (0.02) part of active compounds in the form of 10% water soluble concentrate which was prepared by Example 23 was added into 100 parts of Waxman's liquid medium. Peices of Wood iron (hereafter referred to as the slime test boards) were soaked into the Waxman's liquid medium. The bacteria which were gathered from circular water system were inoculated upon the Waxman's liquid medium and incubated at 27°-34° C by shaking culture for 2 days. The degree of propagation of the bacteria on the slime test boards was examined.
(§2) Thegrowth-inhibiting activity of active compounds against the fungi and the green algae was also examined by the same method as mentioned above.
(§3) The degree of propagation of the bacteria, fungi or green algae on the test boards is defined in terms of the following symbols.

[5] = test system: fungi; assay: as above; assay type: cell-based; conditions: same method, shaking culture for 2 days
Experimental: as §1, §2, §3

[6] = test system: green algae; assay: as above; assay type: cell-based; conditions: same method, shaking culture for 2 days
Experimental: as §1, §2, §3

[7] = test system: summer orange seedlings; assay: Phytotoxicity on summer orange seedlings (Experimental Example 6); assay type: in vivo; conditions: 1,000 ppm
Experimental: (§4) Exterminating test on citrus canker. 4-year-old summer orange seedlings, planted in unglazed pots having a diameter of 20 cm, were employed in this test. Eighty percent (80%) wettable powder of the present invention was diluted with water, and sprayed over the seedlings in an amount of 50 ml per pot. The leaves of the seedlings were inoculated Xanthomonas citri by means of a needle. After the inoculation, the seedlings were maintained in a moist chamber at 25° C for 24 hours. Then the pots were transferred into the greenhouse. Streptomycin 20% wettable powder was used as a control, and tested by the same method. After 2 weeks after the inoculation, degrees of disease attack were observed, and an "Effect Index" was calculated as follows: [formula]

[8] = test system: Fusarium wilt of cucumber; assay: Exterminating test on Fusarium wilt of cucumber (Experimental Example 4); assay type: in vivo, Fusarium oxysporum f, cucumerinum; conditions: Fusarium, soil, 336 h, 500 ppm, soil drench 100 ml per pot, two weeks; read-out: Percentage of healthy seedlings
Experimental: Exterminating test on Fusarium wilt of cucumber Twenty (20) grams of infected soil was added uniformly into each pot which was filled with steam sterilized field soil, then 18 seeds of cucumber (variety; Tokiwazibai) were sowed in each pot. Eighty percent (80%) wettable powder of the present invention was diluted with water to obtain a suspension, and each pot was drenched with the suspension in an amount of 100 ml. Fifty percent (50%) wettable powder of methyl-1-(butylcarbamoyl) 2-benzimidazol carbamate (hereinafter referred to as Benlate) on the market was used as a control and tested by the same method. After two weeks of planting, degrees attacked by the pathogen was observed and a "percentage of healthy seedlings" was calculated as follows: [formula]

[9] = test system: Aspergillus niger; assay: Region of growth-inhibition around treated cotton cloth (Example 26); assay type: cell-based; conditions: emulsifiable concentrate diluted 100 times
Experimental: (§5) The emulsifiable concentrates which were prepared by Example 20 were diluted with water 100 times to form an emulsion. A cloth of cotton was soaked into each emulsion for 2 minutes. The clothes were dried at room temperature and cut into a square of which a side was 1 cm long. Each kind of test bacteria and fungi was inoculated, separately, on plates of potato-agar and one square cloth placed on each of such plates. Test bacteria and fungi were cultivated at 28° C for 4 days. The width of the region of growth-inhibition which was formed a circumference of the cloth was measured.

[10] = test system: Penicillium Citrinum; assay: as above; assay type: cell-based; conditions: emulsifiable concentrate diluted 100 times
Experimental: as §5

[11] = test system: Bacillus subtilis; assay: as above; assay type: cell-based; conditions: emulsifiable concentrate diluted 100 times
Experimental: as §5

[12] = test system: Staphylococcus oureus; assay: as above; assay type: cell-based; conditions: emulsifiable concentrate diluted 100 times
Experimental: as §5

[13] = test system: Xanthomonas citri (citrus canker); assay: Exterminating test on citrus canker (Experimental Example 6); assay type: in vivo; conditions: Xanthomonas citri, 336 h, read-out: Effect Index, 1,000 ppm, 2 weeks after inoculation
Experimental: as §4

[14] = test system: seedlings of kidney beans (variety: Orient); assay: Phytotoxicity on kidney beans (Experimental Example 5); assay type: in vivo; conditions: 1,000 ppm
[15] = test system: cucumber seedlings (variety: Sagamihanjiro); assay: Phytotoxicity on cucumber seedlings (Experimental Example 2); assay type: in vivo; conditions: 500 ppm
Experimental: (§6) The cucumber seeds (variety: Sagamihanjiro) were sown in pots (diameter 18 cm). Eighty percent (80%) wettable powder (contents of active compound: 80%) of the present invention was diluted with water to obtain a suspension. The suspension was sprayed over the cucumber seedlings of the stage of 3-4 leaves in an amount of 20 ml per pot. After 24 hours, these pots were inoculated by means of spray of spore suspension of Cladosporium cucumerinum. The thus-inoculated seedlings were placed in a moist chamber at 20° C for 24 hours. The pots were continuously kept in a greenhouse at 20° C. The following wettable powders on the market were used as controls.

[16] = test system: Cladosporium cucumerinum (cucumber scab); assay: Exterminating test on cucumber scab (Experimental Example 2); assay type: in vivo; set-up: scale not given here; conditions: 500 ppm, 5 days after inoculation
Experimental: Exterminating test on cucumber scab
as §6
70% wettable powder of 1,2-bis (3-methoxy carbonyl-2-thioureid) benzene (hereinafter referred to as "thiophanate methyl") on the market.
75% wettable powder of ethylene bis (dithiocarbamic acid) manganese (hereinafter referred to as "maneb") on the market. After 5 days of the inoculation, degrees attached by the pathogen were observed and the results were shown in Table 3 with an "Infected Index". The "Infected Index" was calculated as follows: [formula] A : Number of leaves which were killed by hard attack B : Number of leaves severely attacked
C : number of leaves slightly attacked
D : number of healthy leaves

[17] = test system: botrytis cinerea (gray mold); assay: Exterminating test on gray mold of tomato (Experimental Example 5); assay type: in vivo; set-up: scale not given here; conditions: 1,000 ppm, 48 hours after inoculation, kidney bean leaves
Experimental: Exterminating test on gray mold of tomato The seedlings of kidney beans (variety: Orient) of 5-6 leaves stage were employed in this test. Eighty percent (80%) wettable powder of the present invention was diluted with water and sprayed over the seedlings in an amount of 10 ml per pot. The leaves were cut from the plant at 24 hours after spraying, and placed in the petri dishes (12 cm in diameter). Thereafter disks (5 mm in diameter) were cut with a cork borer from potato dextrose agar on which the pathogen (botrytis cinerea) was cultured. The disks were placed on the leaves. The dishes were placed in such a moistural condition as to cause the pathogen to propagate. Thiophanate methyl 70% wettable powder on the market was used as a control and tested by the same method. After forty eight (48) hours after inoculation, diameters of the lesions were observed, and an "Effect Index" was calculated as follows; [formula]

Structure (SMILES) | Percentage of healthy seedlings at 0.25 g/box [1] | Degree of growth inhibition ([2]; 0.0125 %) | Degree of growth inhibition ([2]; 0.025 %) | pest or weed control at 1000 ppm [3] | Degree of propagation [4] | Degree of propagation [5] | Degree of propagation [6] | Phytotoxicity [7] | pest or weed control at 500 ppm [8] | width of the region of growth-inhibition [9] | width of the region of growth-inhibition [10] | width of the region of growth-inhibition [11] | width of the region of growth-inhibition [12] | pest or weed control at 1000 ppm [13] | Phytotoxicity [14] | Phytotoxicity [15] | Infected Index [16] | Effect Index [17]
O=C(CCl)Oc1ccccc1C(=O)NC=C(Cl)Cl [compound 13] | 62% | 2 | 3 | 100% | - | - | - | Nil | 70.5% | 6 mm | 7 mm | 7 mm | 6 mm | 67.3% |  |  |  | 
CC(C)C(=O)Oc1ccccc1C(=O)NC=C(Cl)Cl [compound 11] | 68.7% |  |  | 100% |  |  |  |  | 65.5% |  |  |  |  |  | Nil | Nil | 10.1 | 81
CCC(=O)Oc1ccccc1C(=O)NC=C(Cl)Cl [Compound No. 9] | 69.8% | 3 | 3 | 90% | - | - | - |  | 75% | 6 mm | 6 mm | 9 mm | 7 mm |  |  |  |  | 
O=C(NC=C(Cl)Cl)c1cc(Cl)ccc1O [Compound No. 2, N-(2',2'-dichlorovinyl)-5-chlorosalicylamide] | 72.4% | 2 | 3 |  | - | - | - | Nil |  | 5 mm | 5 mm | 9 mm | 10 mm |  | Nil | Nil | 11.0 | 79
CCOC(=O)Oc1ccccc1C(=O)NC=C(Cl)Cl [compound 17] | 68.3% | 2 | 3 | 85% | - |  | + (the area of propagation is 1-25% on the slime test boards.) | Nil | 47.5% | 5 mm | 6 mm | 8 mm | 7 mm | 68.3% |  |  |  | 
CCCC(=O)Oc1ccccc1C(=O)NC=C(Cl)Cl [compound 10] | 72.1% | 3 | 3 | 100% | + (the area of propagation is 1-25% on the slime test boards.) | - | - |  | 70% |  |  |  |  |  | Nil |  |  | 88
CC(=O)Oc1ccc(Cl)cc1C(=O)NC=C(Cl)Cl [Compound No. 7, O-acetyl-N-(2',2'-dichlorovinyl)-5-chlorosalicylamide] | 70.2% | 5 | 5 |  | - | - | - |  | 76.5% | 10 mm | 10 mm | 12 mm | 11 mm |  |  |  |  | 
